Like-named read-outs stand apart in the source and are kept apart here.
Experiments:
[1] = biological target: T1, dopamine-β-hydroxylase (DBH) (Bos taurus, UniProt P15101); assay: in vitro DBH inhibition (conversion of tyramine to octopamine, spectrophotometric at 330 nm); format: biochemical
T1 sequence (P15101 1-610): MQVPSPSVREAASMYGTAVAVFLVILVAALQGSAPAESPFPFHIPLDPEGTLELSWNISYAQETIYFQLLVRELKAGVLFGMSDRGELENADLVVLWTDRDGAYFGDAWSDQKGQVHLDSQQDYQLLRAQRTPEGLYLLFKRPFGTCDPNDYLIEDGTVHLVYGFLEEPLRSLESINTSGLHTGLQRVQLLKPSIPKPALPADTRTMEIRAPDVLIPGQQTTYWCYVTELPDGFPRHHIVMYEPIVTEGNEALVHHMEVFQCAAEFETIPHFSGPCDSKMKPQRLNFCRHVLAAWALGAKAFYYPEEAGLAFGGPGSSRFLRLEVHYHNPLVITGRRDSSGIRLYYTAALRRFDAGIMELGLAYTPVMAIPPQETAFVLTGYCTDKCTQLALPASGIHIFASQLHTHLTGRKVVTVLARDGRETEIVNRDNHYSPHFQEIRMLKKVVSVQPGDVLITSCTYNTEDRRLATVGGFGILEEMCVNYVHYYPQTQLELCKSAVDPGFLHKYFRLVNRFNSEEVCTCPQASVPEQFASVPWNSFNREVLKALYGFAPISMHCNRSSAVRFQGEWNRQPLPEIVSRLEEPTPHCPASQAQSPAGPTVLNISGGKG
Protocol: Because the compounds of Formulae I and II inhibit DBH activity, they have therapeutic value as diuretic, natriuretic, cardiotonic, antihypertensive and vasodilator agents, as well as antiulcerogenic agents. Listed in Table I are the compounds of the invention and compounds included in the pharmaceutical compositions of the invention and useful in the methods of the invention that were tested for in vitro DBH inhibition by a standard procedure for assaying conversion of tyramine to octopamine in the presence of DBH. J. J. Pisano, et al., Biochem. Biophys. Acta; 43, 566-568 (1960). Octopamine was assayed following sodium periodate oxidation to p-hydroxybenzaldehyde by measuring spectrophotometric absorbance at 330 nm. In Table I, inhibition is given in molar concentration of compound at which DBH activity was halved (IC50). Melting points (mp) are given in °C.

[2] = test system: peripheral dopamine (DA) and norepinephrine (NE) levels; assay: effect in vivo on peripheral dopamine (DA) and norepinephrine (NE) levels; parameters: species or system spontaneously hypertensive rats; conditions: oral, two doses approx. 18 h apart, sacrificed about 2 h after second dose, fusaric acid 50 mg/kg; for DA / NE: average of groups of five; for DA: control (saline) 0.314; for DA / DA/NE Ratio: * p <.001 for both compounds; for NE: control (saline) 9.98; for DA/NE Ratio: control (saline) 0.0314
Protocol: One of the compounds of the invention was tested for its effect in vivo on peripheral dopamine (DA) and norepinephrine (NE) levels substantially by the procedure of DaPrada and Zurcher, Life Sciences, 19, 1161, (1976). Groups of five spontaneously hypertensive rats were dosed orally, twice, the second dose approximately 18 hours after the first, and were sacrificed about 2 hours after the second dose.

[3] = test system: spontaneously hypertensive rats; assay: mean arterial blood pressure in spontaneously hypertensive rats; format: in vivo; conditions: 50 mg/kg intraperitoneally, monitored for 260 minutes, tail artery cannulae
Protocol: Further, spontaneously hypertensive rats were dosed with a suspension or solution of 4-(3'-fluorobenzyl)-1,2,4-triazole-3-thiol at a dose of 50 mg/kg intraperitoneally, and mean arterial blood pressure was monitored for 260 minutes using indwelling cannulae positioned in the tail arteries.

[4] = test system: DBH; conditions: literature, cited from earlier work
[5] = literature; cited from earlier work
[6] = Ehrreich et al., literature; cited from earlier work
[7] = in vitro, tyramine to octopamine conversion, read-out: IC50 (molar concentration of compound at which DBH activity was halved)

IC50 [1, 7] [µM] | Compound | DBH inhibition (in words) [4] | further results
24 | Sc1nncn1Cc1ccccc1 [4-benzyl-1,2,4-triazole-3-thiol] |  | 
2.7 | Fc1cccc(Cn2cnnc2S)c1 [4-(3'-fluorobenzyl)-1,2,4-triazole-3-thiol] |  | DA [2]: 0.958 µg/g; NE [2]: 8.46 µg/g; DA/NE Ratio [2]: 0.114; mean arterial blood pressure reduction compared to vehicle-treated controls [3]: statistically significant blood pressure reductions at 60, 140, 160, 200, and 240 minutes
19 | COc1c(F)cc(Cn2cnnc2S)cc1F [4-(3',5'-difluoro-4'-methoxybenzyl)-1,2,4-triazole-3-thiol] |  | 
 | CN(C)C(=S)SCc1ccc(C(=O)O)nc1 [5-(dimethyldithiocarbamoylmethyl)picolinic acid] | DBH inhibitors | 
 | Nc1ccc(C(=O)O)nc1 [5-aminopicolinic acid] | inhibit DBH | 
 | phenylpicolinic acid |  | DBH inhibitory activity relative to fusaric acid ([4]; Runti et al.): twice the inhibitory activity of fusaric acid
 | NNc1ccc(C(=O)O)nc1 [5-hydrazinopicolinic acid] | inhibit DBH | 
 | CCCCc1ccc(C(=O)O)nc1 [Fusaric acid] |  | IC50 [1]: 0.8 µM; DA [2]: 0.715 µg/g; NE [2]: 8.19 µg/g; DA/NE Ratio [2]: 0.0875; toxicity [5]: hepatotoxic
 | CCCC(=O)c1ccc(C(=O)O)nc1 [5-butyroylpicolinic acid] | inhibit DBH | 
 | CCCCc1ccc(C(N)=O)nc1 [Bupicomide, 5-(n-butyl)picolinamine] | DBH inhibitor | antihypertensive activity [6]: antihypertensive activity
 | O=C(O)c1ccc(CCC(Br)CBr)cn1 (stereo not shown) [5-(3,4-dibromobutyl)picolinic acid] | DBH inhibitors | 
 | NNCc1ccccc1 [benzylhydrazine] | apparently act as competitive inhibitors | 
 | O=C(O)c1ccc(CCCCCl)cn1 [5-(4-chlorobutyl)picolinic acid] | inhibit DBH | 
 | NOCc1ccccc1 [Benzyloxyamine, benzyloxyamine] | apparently act as competitive inhibitors | 
1 | Fc1cc(F)cc(Cn2cnnc2S)c1 [4-(3',5'-difluorobenzyl)-1,2,4-triazole-3-thiol] |  | 
0.02 | Oc1c(F)cc(Cn2cnnc2S)cc1F [4-(3',5'-difluoro-4'-hydroxybenzyl)-1,2,4-triazole-3-thiol] |  | 
